Where two headings read alike, the source gives them in different places.

In assay [1] the test system is PSN-1 (G12R). Put plainly: KRAS mutant cell proliferation inhibition assay (CellTiter-Glo 3D), PSN-1. Conditions: PSN-1 (G12R) cells, 7 days. Type of assay: cell-based. As for the experimental part:
(§1) Positive control: MRTX1133
(§2) • (a) The cells were thawed in T75 cell culture flasks: • (b) When 80%-90% cell confluence was achieved, the cells were passaged.
(§3) The diluted test compound was added to a 384-well cell culture plate using a nanoliter pipetting system, and replicate wells were set. An equal volume of medium was added to the positive control group; an equal volume of DMSO was added to the negative control group. The plate was centrifuged at 1000 rpm at room temperature for 1 min.
(§4) The cells were seeded into a) 384-well culture plate. An equal volume of cells was added to the negative control group, and only an equal volume of medium was added to the positive control group. The plate was centrifuged at 1000 rpm at room temperature for 1 min. The final DMSO concentration in the final compound was 0.5%. The plate was incubated in a thermostatic incubator at 37° C. with 5% CO2 for 7 days.
(§5) CellTiter-Glo® 3D was added to b) 384-well cell culture plate at 20 μL/well. The plate was shaken at 320 rpm in the dark for 20 min, and incubated at room temperature in the dark for 2 h. The luminescence values were read using an Envision multi-mode microplate reader.
(§6) The inhibition rates (IRs) of the test compounds were calculated according to the following formula: IR (%)=(1−(RLU compound−RLU blank control)/(RLU vehicle control−RLU blank control))×100%. The inhibition rates of the compounds at different concentrations were calculated in Excel, and then inhibition curves were plotted and relevant parameters including minimum inhibition rate, maximum inhibition rate and IC50 were calculated using GraphPad Prism software.

Assay [2] has as its system H727 (G12V). As to the kind of experiment: KRAS mutant cell proliferation inhibition assay (CellTiter-Glo 3D), H727. In kind it is cell-based, human. As to conditions: H727 (G12V) cells, 7 days. How it is done:
as §1, §2, §3, §4, §5, §6

The subject of assay [3] is MNK1 (WT). Put plainly: Cell proliferation inhibition assay (CellTiter-Glo 3D), MNK1. In kind it is cell-based, human. Conditions: MNK1 (WT) cells, 7 days. As for the experimental part:
as §1, §2, §3, §4, §5, §6

Assay [4] deals with AsPC-1 (G12D). As to the kind of experiment: KRAS mutant cell proliferation inhibition assay (CellTiter-Glo 3D), AsPC-1. In kind it is cell-based, human. As to conditions: AsPC-1 (G12D) cells, 7 days. As for the experimental part: as §1, §2, §3, §4, §5, §6
Assay [5] relates to SW480 (G12V). As to the kind of experiment: KRAS mutant cell proliferation inhibition assay (CellTiter-Glo 3D), SW480. In kind it is cell-based. Conditions: Homo sapiens, 168 h, SW480 (G12V) cells, 7 days. As for the experimental part:
as §1, §2, §3, §4, §5, §6

For the compound `CCc1c(F)ccc2cc(O)cc(-c3ncc4c(N5CCC[C@](C)(O)C5)nc(OCC56CCCN5CC5(C6)CC5(F)F)nc4c3F)c12` (stereo in doubt) [Example A-13A, (S)-1-(2-(((trans)-2,2-difluorodihydro-1′H,3′H-spiro[cyclopropane-1,2′-pyrrolizin]-7a′ (5′H)-yl)methoxy)-7-(8-ethyl-7-fluoro-3-hydroxynaphthalen-1-yl)-8-fluoropyrido[4,3-d]pyrimidin-4-yl)-3-methylpiperidin-3-ol], the IC50 is more than 10000 nM in assay [1] (read-out: PSN1 IC50), 1990 nM in assay [2], 634 nM in assay [3] and more than 1000 nM in assay [4].
As to `CCc1c(F)ccc2cc(O)cc(-c3ncc4c(N5CCCn6nc(C(=O)N(C)C)cc6C5)nc(OC[C@@]56CCCN5C[C@@]5(CC5(F)F)C6)nc4c3F)c12` [Example A-24, 5-(2-(((1S,7a'S)-2,2-Difluorodihydro-1′H,3′H-spiro[cyclopropane-1,2′-pyrrolizin]-7a′ (5′H)-yl)methoxy)-7-(8-ethyl-7-fluoro-3-hydroxynaphthalen-1-yl)-8-fluoropyrido[4,3-d]pyrimidin-4-yl)-N,N-dimethyl-5,6,7,8-tetrahydro-4H-pyrazolo[1,5-a][1,4]diazepine-2-carboxamide], the IC50 in assay [1] (Homo sapiens, PSN1, 168 h) was more than 10000 nM; in assay [2] (Homo sapiens, NCI-H727, 168 h), 101 nM; in assay [3] (Homo sapiens, 168 h), 19.7 nM; in assay [4] (Homo sapiens, ASPC1, 168 h), 11.1 nM.
`C#Cc1c(F)ccc2cc(O)cc(-c3ncc4c(N5CCCC6(CCO6)C5)nc(OC[C@@]56CCCN5C[C@@]5(CC5(F)F)C6)nc4c3F)c12` (stereo partly shown) [Example A-15, 4-(2-(((1.S,7a'S)-2,2-difluorodihydro-1′H,3′H-spiro[cyclopropane-1,2′-pyrrolizin]-7a′ (5′H)-yl)methoxy)-8-fluoro-4-(1-oxa-6-azaspiro[3.5]nonan-6-yl)pyrido[4,3-d]pyrimidin-7-yl)-5-ethynyl-6-fluoronanhthalen-2-ol]: the IC50 in assay [1] (Homo sapiens, PSN1, 168 h) is more than 10000 nM; in assay [2] (Homo sapiens, NCI-H727, 168 h), 450 nM; in assay [3] (Homo sapiens, 168 h), 171 nM; in assay [4] (Homo sapiens, ASPC1, 168 h) it was 164 nM.
Turning to `CCc1c(F)ccc2cc(O)cc(-c3ncc4c(N5CCC[C@@](C)(O)C5)nc(OCC56CCCN5CC5(C6)CC5(F)F)nc4c3F)c12` (stereo in doubt) [Example A-13B, (R)-1-(2-(((trans)-2,2-difluorodihydro-l′H,3′H-spiro[cyclopropane-1,2′-pyrrolizin]-7a′ (5′H)-yl)methoxy)-7-(8-ethyl-7-fluoro-3-hydroxynaphthalen-1-yl)-8-fluoropyrido[4,3-d]pyrimidin-4-yl)-3-methylpiperidin-3-ol], the IC50 in assay [1] (read-out: PSN1 IC50) amounted to 506 nM; in assay [2], 51.7 nM; in assay [3], 12.9 nM; in assay [4], 18.8 nM.
Turning to `CN(C)C(=O)c1cc2n(n1)CCCN(c1nc(OC[C@@]34CCCN3C[C@@]3(CC3(F)F)C4)nc3c(F)c(-c4cc(N)cc(Cl)c4C(F)(F)F)ncc13)C2` [Example A-25, 5-(7-(5-Amino-3-chloro-2-(trifluoromethyl)phenyl)-2-(((1S,7a'S)-2,2-difluorodihydro-1′H,3′H-spiro[cyclopropane-1,2′-pyrrolizin]-7a′ (5′H)-yl)methoxy)-8-fluoropyrido[4,3-d]pyrimidin-4-yl)-N,N-dimethyl-5,6,7,8-tetrahydro-4H-pyrazolo[1,5-a][1,4]diazepine-2-carboxamide], the IC50 was more than 10000 nM in assay [1] (Homo sapiens, PSN1, 168 h); 141 nM in assay [2] (Homo sapiens, NCI-H727, 168 h); 66.3 nM in assay [3] (Homo sapiens, 168 h); 33.6 nM in assay [4] (Homo sapiens, ASPC1, 168 h).
Turning to `CCc1c(F)ccc2cc(O)cc(N3CCc4c(nc(OC[C@@]56CCCN5C[C@@]5(CC5(F)F)C6)nc4N4CCCn5nc(C(=O)N(C)C)cc5C4)C3)c12` [Example B-13, 5-(2-(((1S,7a'S)-2,2-Difluorodihydro-1′H,3′H-spiro[cyclopropane-1,2′-pyrrolizin]-7a′ (5′H)-yl)methoxy)-7-(8-ethyl-7-fluoro-3-hydroxynaphthalen-1-yl)-5,6,7,8-tetrahydropyrido[3,4-d]pyrimidin-4-yl)-N,N-dimethyl-5,6,7,8-tetrahydro-4H-pyrazolo[1,5-a][1,4]diazepine-2-carboxamide], the concentration for half-maximal inhibition (IC50) worked out at 2350 nM in assay [1] (Homo sapiens, PSN1, 168 h); 47.3 nM in assay [2] (Homo sapiens, NCI-H727, 168 h); 24.3 nM in assay [3] (Homo sapiens, 168 h); 8.98 nM in assay [4] (Homo sapiens, ASPC1, 168 h).
The like results for `CCc1c(F)ccc2cc(O)cc(-c3ncc4c(N5CCC[C@@]6(C5)NC(=O)NC6=O)nc(OC[C@@]56CCCN5C[C@@]5(CC5(F)F)C6)nc4c3F)c12` [Example A-26, (S)-7-(2-(((1S,7a'S)-2,2-Difluorodihydro-1′H,3′H-spiro[cyclopropane-1,2′-pyrrolizin]-7a′ (5′H)-yl)methoxy)-7-(8-ethyl-7-fluoro-3-hydroxynaphthalen-1-yl)-8-fluoropyrido[4,3-d]pyrimidin-4-yl)-1,3,7-triazaspiro[4.5]decane-2,4-dione] were, in that order, more than 10000 nM, 7370 nM, 1620 nM and more than 1000 nM.
As to `CCc1c(F)ccc2cc(O)cc(-c3ncc4c(N5CCCOC6CC65)nc(OC[C@@]56CCCN5C[C@@]5(CC5(F)F)C6)nc4c3F)c12` (stereo partly drawn) [Example A-28, 4-(4-(2-Oxa-6-azabicyclo[5.1.0]octan-6-yl)-2-(((1S,7a'S)-2,2-difluorodihydro-1′H,3′ H-spiro[cyclopropane-1,2′-pyrrolizin]-7a′ (5′H)-yl)methoxy)-8-fluoropyrido[4,3-d]pyrimidin-7-yl)-5-ethyl-6-fluoronaphthalen-2-ol], the concentration for half-maximal inhibition (IC50) in assay [5] came to 37.3 nM; in assay [4] (Homo sapiens, ASPC1, 168 h), 27.6 nM.
`CC1(O)COCCN(c2nc(OC[C@@]34CCCN3C[C@@]3(CC3(F)F)C4)nc3c(F)c(-c4cc(N)cc(Cl)c4C(F)(F)F)ncc23)C1` (stereo partly drawn) [Example A-39, 4-(7-(5-Amino-3-chloro-2-(trifluoromethyl)phenyl)-2-(((1S,7a'S)-2,2-difluorodihydro-1′H,3′H-spiro[cyclopropane-1,2′-pyrrolizin]-7a′ (5′H)-yl)methoxy)-8-fluoropyrido[4,3-d]pyrimidin-4-yl)-6-methyl-1.4-oxazenan-6-ol]: the IC50 in assay [1] (Homo sapiens, PSN1, 168 h) is more than 10000 nM; in assay [2] (Homo sapiens, NCI-H727, 168 h) it was 604 nM; in assay [3] (Homo sapiens, 168 h) it was 273 nM; in assay [4] (Homo sapiens, ASPC1, 168 h) it was 293 nM.
On to `C#Cc1c(F)ccc2cc(O)cc(-c3ncc4c(N(C)[C@H]5C[C@@H]5F)nc(OC[C@@]56CCCN5C[C@@]5(CC5(F)F)C6)nc4c3F)c12` [Example A-44, 4-(2-(((15,7a'S)-2,2-Difluorodihydro-1′H,3′H-spiro[cyclopropane-1,2′-pyrrolizin]-7a′ (5′H)-yl)methoxy)-8-fluoro-4-(((trans)-2-fluorocyclopropyl)(methyl)amino)pyrido[4,3-d]pyrimidin-7-yl)-5-ethynyl-6-fluoronaphthalen-2-ol], for which the IC50 was found to be 7.13 nM in assay [5] and 25.1 nM in assay [4] (Homo sapiens, ASPC1, 168 h).
Turning to `CCc1c(F)ccc2cc(O)cc(-c3ncc4c(N5CCC6CCC(C5)O6)nc(OC[C@@]56CCCN5C[C@@]5(CC5(F)F)C6)nc4c3F)c12` (stereo partly shown) [Example A-31], the 50% inhibitory concentration (IC50) in assay [5] came to 651 nM; in assay [4] (Homo sapiens, ASPC1, 168 h), 736 nM.
On to `Nc1cc(Cl)c(C(F)(F)F)c(-c2ncc3c(N4CCCC5(CCO5)C4)nc(OC[C@@]45CCCN4C[C@@]4(CC4(F)F)C5)nc3c2F)c1` (stereo partly drawn) [Example A-14, 3-Chloro-5-(2-(((1S,7a'S)-2,2-difluorodihydro-1′H,3′H-spiro[cyclopropane-1,2′-pyrrolizin]-7a′ (5′H)-yl)methoxy)-8-fluoro-4-(1-oxa-6-azaspiro[3.5]nonan-6-yl)pyrido[4,3-d]pyrimidin-7-yl)-4-(trifluoromethyl)aniline], for which the IC50 in assay [1] (Homo sapiens, PSN1, 168 h) is more than 10000 nM; in assay [2] (Homo sapiens, NCI-H727, 168 h), 242 nM; in assay [3] (Homo sapiens, 168 h), 133 nM; in assay [4] (Homo sapiens, ASPC1, 168 h), 61.1 nM.
With `CN(c1nc(OC[C@@]23CCCN2C[C@@]2(CC2(F)F)C3)nc2c(F)c(-c3cc(N)cc(Cl)c3C(F)(F)F)ncc12)[C@H]1C[C@@H]1F` [Example A-46, 7-(5-Amino-3-chloro-2-(trifluoromethyl)phenyl)-2-(((15,7a'S)-2,2-difluorodihydro-1′H,3′H-spiro[cyclopropane-1,2′-pyrrolizin]-7a′ (5′H)-yl)methoxy)-8-fluoro-N-((trans)-2-fluorocyclopropvl)-N-methylpyrido[4,3-d]pyrimidin-4-amine], the IC50 was determined as 482 nM in assay [5] and 732 nM in assay [4] (Homo sapiens, ASPC1, 168 h).
`CCc1c(F)ccc2cc(O)cc(-c3ncc4c(N5CCOCCC5C)nc(OC[C@@]56CCCN5C[C@@]5(CC5(F)F)C6)nc4c3F)c12` (stereo partly drawn) [Example A-37, 4-(2-(((1S,7a'S)-2,2-Difluorodihydro-1′H,3′H-spiro[cyclopropane-1,2′-pyrrolizin]-7a′ (5′H)-yl)methoxy)-8-fluoro-4-(5-methyl-1,4-oxazepan-4-yl)pyrido[4,3-d]pyrimidin-7-yl)-5-ethyl-6-fluoronaphthalen-2-ol]: the IC50 in assay [5] was found to be 307 nM; in assay [4] (Homo sapiens, ASPC1, 168 h), 572 nM.

Values taken from patent publication US20260015363A1, “SUBSTITUTED PYRIMIDINE-FUSED RING INHIBITOR, METHOD FOR PREPARING SAME, AND USE THEREOF” (Suzhou Zelgen Biopharmaceuticals Co., Ltd., priority 2022, published 2026).
